biological target: T1, recombinant alpha-glucosidase I (human full-length glucosidase I, Glu 1) (Homo sapiens, UniProt Q13724); experiment: Alpha-glucosidase I assay (Amplex Red glucose detection, synthetic trisaccharide substrate); type: biochemical; conditions: Glucosidase 1; read-out: Glu 1 IC50
T1 construct: 6-His (C); made in house; host or cells: HEK-293T cells transduced with BacMam virus (virus raised in Sf9)
T1 sequence (Q13724 1-837): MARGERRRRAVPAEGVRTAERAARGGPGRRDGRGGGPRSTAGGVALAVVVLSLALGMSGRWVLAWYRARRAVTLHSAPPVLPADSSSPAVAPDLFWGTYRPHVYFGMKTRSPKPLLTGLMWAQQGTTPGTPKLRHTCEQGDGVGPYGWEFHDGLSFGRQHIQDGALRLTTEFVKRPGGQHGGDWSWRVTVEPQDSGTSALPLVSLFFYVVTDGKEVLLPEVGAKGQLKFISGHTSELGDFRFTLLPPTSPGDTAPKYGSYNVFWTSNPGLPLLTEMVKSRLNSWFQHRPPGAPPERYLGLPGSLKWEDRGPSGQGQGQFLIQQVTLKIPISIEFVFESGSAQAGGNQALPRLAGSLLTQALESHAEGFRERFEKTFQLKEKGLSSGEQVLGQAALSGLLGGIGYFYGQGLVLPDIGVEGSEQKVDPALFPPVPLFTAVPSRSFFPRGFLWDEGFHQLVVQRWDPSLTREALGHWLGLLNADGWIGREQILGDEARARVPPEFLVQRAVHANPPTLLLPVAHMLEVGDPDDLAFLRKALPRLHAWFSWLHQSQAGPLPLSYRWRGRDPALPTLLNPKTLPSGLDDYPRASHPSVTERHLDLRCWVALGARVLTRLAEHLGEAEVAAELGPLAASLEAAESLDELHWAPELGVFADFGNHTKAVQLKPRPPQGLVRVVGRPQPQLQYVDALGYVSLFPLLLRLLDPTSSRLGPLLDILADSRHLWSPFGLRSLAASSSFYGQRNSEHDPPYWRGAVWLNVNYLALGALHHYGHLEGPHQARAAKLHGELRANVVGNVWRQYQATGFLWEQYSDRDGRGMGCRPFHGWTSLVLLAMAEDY
Outline: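 Human full-length glucosidase I, His-tagged, […] and Ni-purified. Enzyme preincubated with compound dilutions 60 min at 37° C, then synthetic trisaccharide substrate 90 min at 37° C; stopped with 1.5M Tris pH 8.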

`OC[C@@H]1[C@@H](O)[C@H](O)[C@@H](O)CN1Cc1cccc(CNc2ccc(-c3ncccn3)cc2)c1` [Compound 1084, (2R,3R,4R,5S)-2-(hydroxymethyl)-1-{[3-({[4-(pyrimidin-2-yl)phenyl]amino}methyl)phenyl]methyl}piperidine-3,4,5-triol] and `OC[C@@H]1[C@@H](O)[C@H](O)[C@@H](O)CN1Cc1cccc(CNc2ccc(-c3ccc[nH]3)cc2)c1` [Compound 1082, (2R,3R,4R,5S)-2-(hydroxymethyl)-1-{[3-({[4-(1H-pyrrol-2-yl)phenyl]amino}methyl)phenyl]methyl}piperidine-3,4,5-triol] are within 1.5-fold of each other in IC50: 79 nM for the first, 69 nM for the second.

`CS(=O)(=O)c1cc(NCc2ccc(CN3C[C@H](O)[C@@H](O)[C@H](O)[C@H]3CO)cc2)cc(N2CCOCC2)c1` [Compound 1054, (2R,3R,4R,5S)-2-(hydroxymethyl)-1-{[4-({[3-methanesulfonyl-5-(morpholin-4-yl)phenyl]amino}methyl)phenyl]methyl}piperidine-3,4,5-triol] and `Cc1cc(NCc2ccc(CN3C[C@H](O)[C@@H](O)[C@H](O)[C@H]3CO)cc2)cc(N2CCOCC2)c1` [Compound 1048, (2R,3R,4R,5S)-2-(hydroxymethyl)-1-{[4-({[3-methyl-5-(morpholin-4-yl)phenyl]amino}methyl)phenyl]methyl}piperidine-3,4,5-triol] are within 1.5-fold of each other in IC50: 102 nM for the first, 145 nM for the second.

Compared with `COC(=O)c1cc(Cl)cc(NCCc2ccc(CCN3C[C@H](O)[C@@H](O)[C@H](O)[C@H]3CO)cc2)c1` [Compound 1116, methyl 3-chloro-5-{[2-(4-{2-[(2R,3R,4R,5S)-3,4,5-trihydroxy-2-(hydroxymethyl)piperidin-1-yl]ethyl}phenyl)ethyl]amino}benzoate], `O=C(O)c1cc(Cl)cc(NCCc2ccc(CCN3C[C@H](O)[C@@H](O)[C@H](O)[C@H]3CO)cc2)c1` [Compound 1117, 3-chloro-5-{[2-(4-{2-[(2R,3R,4R,5S)-3,4,5-trihydroxy-2-(hydroxymethyl)piperidin-1-yl]ethyl}phenyl)ethyl]amino}benzoic acid] is 1.6-fold lower in IC50: 1360 nM for the first, 877 nM for the second.

First: Cc1cc(NCc2ccc(CN3C[C@H](O)[C@@H](O)[C@H](O)[C@H]3CO)cc2)cc(-c2ccc[nH]2)c1 [Compound 1051, (2R,3R,4R,5S)-2-(hydroxymethyl)-1-{[4-({[3-methyl-5-(1H-pyrrol-2-yl)phenyl]amino}methyl)phenyl]methyl}piperidine-3,4,5-triol]
Second: Cc1cc(NCc2ccc(CN3C[C@H](O)[C@@H](O)[C@H](O)[C@H]3CO)cc2)cc(C2=COCCO2)c1 [Compound 1050, (2R,3R,4R,5S)-1-{[4-({[3-(5,6-dihydro-1,4-dioxin-2-yl)-5-methylphenyl]amino}methyl)phenyl]methyl}-2-(hydroxymethyl)piperidine-3,4,5-triol]
The IC50 of the first is 1.5-fold higher: 48 nM for the first, 32 nM for the second. The second is the more potent here.

Compared with `N#Cc1cc(NCc2ccc(CN3C[C@H](O)[C@@H](O)[C@H](O)[C@H]3CO)cc2)cc(N2CCOCC2)c1` [Compound 1060, 3-(morpholin-4-yl)-5-{[(4-{[(2R,3R,4R,5S)-3,4,5-trihydroxy-2-(hydroxymethyl)piperidin-1-yl]methyl}phenyl)methyl]amino}-benzonitrile], `O=[N+]([O-])c1cc(N2CCOCC2)ccc1NCc1ccc(CN2C[C@@H](O)[C@H](O)[C@@H](O)[C@@H]2CO)cc1` (stereo in doubt) [Compound 1069, (2S,3S,4S,5R)-2-(hydroxymethyl)-1-{[4-({[4-(morpholin-4-yl)-2-nitrophenyl]amino}methyl)phenyl]methyl}piperidine-3,4,5-triol] is 1.9-fold lower in IC50: 41 nM for the first, 22 nM for the second.

`CN(Cc1ccc(CN2C[C@H](O)[C@@H](O)[C@H](O)[C@H]2CO)cc1)c1cc(-c2cccnn2)cc(C2CC2)c1` [Compound 1001, (2R,3R,4R,5S)-1-{[4-({[3-cyclopropyl-5-(pyridazin-3-yl)phenyl](methyl)amino}methyl)phenyl]methyl}-2-(hydroxymethyl)piperidine-3,4,5-triol] and `N#Cc1cc(NCc2ccc(CN3C[C@H](O)[C@@H](O)[C@H](O)[C@H]3CO)cc2)cc(-c2cccnn2)c1` [Compound 1064, 3-(pyridazin-3-yl)-5-{[(4-{[(2R,3R,4R,5S)-3,4,5-trihydroxy-2-(hydroxymethyl)piperidin-1-yl]methyl}phenyl)methyl]amino}-benzonitrile] are within 1.5-fold of each other in IC50: 13 nM for the first, 12 nM for the second.

First: OC[C@@H]1[C@@H](O)[C@H](O)[C@@H](O)CN1Cc1ccc(CNc2ccc(CN3CCCO3)cc2)cc1 [Compound 1092, (2R,3R,4R,5S)-2-(hydroxymethyl)-1-({4-[({4-[(1,2-oxazolidin-2-yl)methyl]phenyl}amino)methyl]phenyl}methyl)piperidine-3,4,5-triol]
Second: O=[N+]([O-])c1cc(CN2CCCO2)ccc1NCc1cccc(CN2C[C@H](O)[C@@H](O)[C@H](O)[C@H]2CO)c1 [Compound 1086]
The IC50 of the first is 2.2-fold lower: 59 nM for the first, 132 nM for the second.

Compared with `[N-]=[N+]=Nc1ccc(NCc2ccc(Cc3ccc(CN4C[C@H](O)[C@@H](O)[C@H](O)[C@H]4CO)cc3)cc2)c([N+](=O)[O-])c1` [Compound 1105, (2R,3R,4R,5S)-1-({4-[(4-{[(4-azido-2-nitrophenyl)amino]methyl}phenyl)methyl]phenyl}methyl)-2-(hydroxymethyl)piperidine-3,4,5-triol], `O=[N+]([O-])c1cc(C2=COCCO2)ccc1NCc1ccc(CN2C[C@H](O)[C@@H](O)[C@H](O)[C@H]2CO)cc1` [Compound 1099, (2R,3R,4R,5S)-1-{[4-({[4-(5,6-dihydro-1,4-dioxin-2-yl)-2-nitrophenyl]amino}methyl)phenyl]methyl}-2-(hydroxymethyl)piperidine-3,4,5-triol] is lower in IC50: 16 nM for the first, less than 1 nM for the second.

First: OC[C@@H]1[C@@H](O)[C@H](O)[C@@H](O)CN1CCc1ccc(CCNc2cc(Cl)cc(-c3noc(C4CCC4)n3)c2)cc1 [Compound 1122, (2R,3R,4R,5S)-1-{2-[4-(2-{[3-chloro-5-(5-cyclobutyl-1,2,4-oxadiazol-3-yl)phenyl]amino}ethyl)phenyl]ethyl}-2-(hydroxymethyl)piperidine-3,4,5-triol]
Second: O=[N+]([O-])c1cc(-c2ncc[nH]2)ccc1NCCc1ccc(CCN2C[C@H](O)[C@@H](O)[C@H](O)[C@H]2CO)cc1 [Compound 1078, (2R,3R,4R,5S)-2-(hydroxymethyl)-1-{2-[4-(2-{[4-(1H-imidazol-2-yl)-2-nitrophenyl]amino}ethyl)phenyl]ethyl}piperidine-3,4,5-triol]
The IC50 of the first is 5.8-fold higher: 1160 nM for the first, 200 nM for the second. The second is the more potent here.

Going from `OC[C@@H]1[C@@H](O)[C@H](O)[C@@H](O)CN1CCCCCCNc1cc(C2CC2)cc(N2CCOCC2)c1` [Compound 1006, (2R,3R,4R,5S)-1-(6-{[3-cyclopropyl-5-(morpholin-4-yl)phenyl]amino}hexyl)-2-(hydroxymethyl)piperidine-3,4,5-triol] to `O=C(O)c1cc(NCCCCCCN2C[C@H](O)[C@@H](O)[C@H](O)[C@H]2CO)cc(-c2ncccn2)c1` [Compound 1118, 3-(pyrimidin-2-yl)-5-({6-[(2R,3R,4R,5S)-3,4,5-trihydroxy-2-(hydroxymethyl)piperidin-1-yl]hexyl}amino) benzoic acid], the IC50 falls from 220 nM to 10 nM (22-fold). The second is the more potent here.

`N#Cc1cc(NCc2cccc(CN3C[C@H](O)[C@@H](O)[C@H](O)[C@H]3CO)c2)cc(-c2ccc[nH]2)c1` [Compound 1045, 3-(1H-pyrrol-2-yl)-5-{[(3-{[(2R,3R,4R,5S)-3,4,5-trihydroxy-2-(hydroxymethyl)piperidin-1-yl]methyl}phenyl)methyl]amino}benzonitrile] and `O=[N+]([O-])c1cc(-c2ccc[nH]2)ccc1NCc1cccc(CN2C[C@H](O)[C@@H](O)[C@H](O)[C@H]2CO)c1` [Compound 1088, (2R,3R,4R,5S)-2-(hydroxymethyl)-1-{[3-({[2-nitro-4-(1H-pyrrol-2-yl)phenyl]amino}methyl)phenyl]methyl}piperidine-3,4,5-triol] cannot be ordered by IC50: less than 1 nM for the first, less than 1 nM for the second.

Compared with `OC[C@@H]1[C@@H](O)[C@H](O)[C@@H](O)CN1Cc1cccc(CNc2ccc(N3CCOCC3)cc2)c1` [Compound 1081, (2R,3R,4R,5S)-2-(hydroxymethyl)-1-{[3-({[4-(morpholin-4-yl)phenyl]amino}methyl)phenyl]methyl}piperidine-3,4,5-triol], `OC[C@@H]1[C@@H](O)[C@H](O)[C@@H](O)CN1Cc1cccc(CNc2ccc(C3=COCCO3)cc2)c1` [Compound 1066, (2R,3R,4R,5S)-1-{[3-({[4-(5,6-dihydro-1,4-dioxin-2-yl)phenyl]amino}methyl)phenyl]methyl}-2-(hydroxymethyl)piperidine-3,4,5-triol] is 2.4-fold lower in IC50: 169 nM for the first, 69 nM for the second.

`CC(C)c1cc(CCNc2ccc(N=[N+]=[N-])cc2[N+](=O)[O-])cc(CCN2C[C@H](O)[C@@H](O)[C@H](O)[C@H]2CO)c1` [Compound 1077, (2R,3R,4R,5S)-1-[2-(3-{2-[(4-azido-2-nitrophenyl)amino]ethyl}-5-(propan-2-yl)phenyl)ethyl]-2-(hydroxymethyl)piperidine-3,4,5-triol] showed an IC50 of 697 nM.
